The record followed here is patent publication US20050059014A1, “Analytical platform and detection method with the analytes to be determined in a sample as immobilized specific binding partners” (priority 2002, published 2005).

The test has as its system Phospho-p44/42 MAP kinase (pErk2). Kind of test: Cell lysate array on evanescent field sensor platform, detection with antibody A3. It counts as cell-based, human. The note with it: Jurkat cells, staurosporine 10 μM, 180 min.

Description: Human T-cell cultures (Jurkat, DMZ # ACC282) are utilized for the detection of biologically relevant protein analytes in “nature-identical” samples. These cells are cultivated at 37° C. in a solution containing RPMI 1640, 10 % FCS (fetal calf serum), 2 mM glutamine, 50 U/ml penicillin, 50 μg/ml streptamycine (cell density at about 0.5−×10^6−1.0×10^6 cells/ml).
Then the cell cultures treated as described above and the untreated cell cultures, respectively, are cooled to 4° C. and formed to pellets by centrifugation at a centrifugal force of 350×g (number of cells at about 10^7).The cells here are simply separated from the medium, without damage to the cells. […]
The fluorescence signals from the various arrays of measurement areas undergo automatic sequential measurement using a ZeptoREADER™ (Zeptosens AG, Benkenstrasse 254, CH-4108 Witterswil). […] Then, for each array, images of the fluorescence signals from the corresponding array are generated, wherein the user can select different exposure times and the number of images to be generated. In the case of measurements for the present example, the excitation wavelength is 633 nm, and the detection of the fluorescence light at the fluorescence wavelength of Cy5 is performed using a cooled camera, an interference filter (transmission 670 nm ±20 nm) for suppression of scattered light being positioned in front of the lens of the camera. […]

As for `CN[C@@H]1C[C@H]2O[C@@](C)([C@@H]1OC)n1c3ccccc3c3c4c(c5c6ccccc6n2c5c31)C(=O)NC4` [staurosporin, staurosporine], the “pErk2 signal of the nonstimulated control sample compared with the sample treated with staurosporin” value was “only slightly higher”.
